Article PMC8042770, “Odorant Receptors for Detecting Flowering Plant Cues Are Functionally Conserved across Moths and Butterflies” (Molecular Biology and Evolution, 2020)
“Also recorded” adds a separate entry of the source.

Assays:
H. armigera moths = assay: Two-choice olfactometer behavioral assay, adult moths; format: in vivo, Helicoverpa armigera; conditions: females and males, 0.01 mg PAA or 50 μl 0.1% IAC, 10 h
Protocol: In a first step, we tested the attractiveness of PAA and a commercial mix of floral attractants, which takes PAA as its principal component (IAC) ([Cork 2016]; [Whitfield et al. 2019]), to H. armigera moths using a two-choice behavioral assay in a choice box (fig. 6A).
For adults, behavioral experiments were performed in a two-choice olfactometer according to a previous study with some modifications ([Del Socorro et al. 2010]). The olfactometer apparatus consisted of a main-chamber (60 cm × 30 cm × 25 cm) and two-choice subchambers under the main-chamber (20 cm × 15 cm × 25 cm) (fig. 6A). A metal gauze funnel (10 cm diameter) was inserted between the main-chamber and the subchambers. A hole at the bottom of the funnel allowed the moth to enter the subchamber. Clean humidified air flows (15 l/min) entered each subchamber and were exhausted by an exhaust fan. All the experiments were performed during the moth scotophase at 27 ± 1 °C. […] After 10 h, the number of moths in each subchamber was recorded. […] A selection ratio (SR) was calculated using the formula: SR = T/(T + C), where T represents the number of moths that entered the test subchamber and C represents the number of moths that entered the control subchamber. […] A quantity of 0.01 mg PAA was applied. […] The results were statistically analyzed using a χ^2 test.

EsemOR19 = assay: Xenopus oocyte voltage clamp of EsemOR19; format: cell-based, Eriocrania semipurpurella; conditions: 10^−4 M
Description: We also examined the response profile of EsemOR19 from E. semipurpurella, an OR that falls close to the HarmOR42-defined clade but that is not considered as a HarmOR42 ortholog. […] We also characterized the function of RnubOR13 from R. nubila (Trichoptera), a species from a sister order of Lepidoptera. […] Unfortunately, the putative E. semipurpurella OR that would consist of EsemOR34 + 35 and that falls at the base of the HarmOR42 clade could not be tested as it is incomplete.
Full-length coding sequences of 45 ORs (including Orco) of H. armigera, and OR42 and Orco orthologs in B. mori, H. assulta, G. molesta, and M. separate were amplified from the antennal cDNA of each species adults by PCR with specific primer pairs of each gene. […]
Functional characterization of individual ORs was performed by heterologous expression in Xenopus oocytes combined with a two-electrode voltage-clamp system ([Wang et al. 2010]). […] After incubation in nutrient solution at 18 °C for 3–5 days, the response profile of each oocyte to multiple plant odorants was recorded via a two-electrode voltage clamp (OC-725C oocyte clamp, Warner Instruments, Hamden, CT) at a holding potential of −80 mV. Data were acquired by using a Digidata 1440 A and were analyzed by pCLAMP 10.2 software (Axon Instruments Inc., Union City, CA). […]

SlitOR14 = tested on: SlitOR14; parameters: method as in de Fouchier et al. 2017; conditions: ref de Fouchier et al. 2017; cited from earlier work
HarmOR42 = HarmOR42 (Helicoverpa armigera, UniProt A0A7T3KAF6); assay: Xenopus oocyte two-electrode voltage clamp, HarmOR42 + Orco; format: cell-based
Description: In preliminary screening, we used a high dosage (10^−4 M) of odorants. […] Most functional ORs responded robustly to multiple odorants. The strongest response (up to ∼6,000 nanoampere, nA) we detected was that of HarmOR42 toward the aromatic compound PAA. Further, the response profiles of the 28 HarmORs appeared to be highly differentiated, with no apparent overlap in their tuning spectra (with the exception of HarmOR12 and 36) according to functional cluster analysis (fig. 1A).
In order to expand our analysis on the response properties of HarmORs, we conducted dose–response analyses for the 28 functional HarmORs. […] Six HarmORs (OR3, 22, 48, 50, 56, and 66) could not be activated by any ligand at 10^−5 M. For the other 22 HarmORs, dose–response curves were generated and EC50 values of their major ligands were calculated (fig. 2A and supplementary table S2, Supplementary Material online). The HarmOR repertoire was highly efficient in terpene detection, since the lowest EC50 values were obtained for such compounds. Many of these terpenes have been proposed to be defensive chemicals of plants. […] DMNT is also one of the oviposition deterring compounds found in larval frass of some Lepidoptera species such as S. littoralis ([Anderson et al. 1993]).
Functional characterization of individual ORs was performed by heterologous expression in Xenopus oocytes combined with a two-electrode voltage-clamp system ([Wang et al. 2010]). Briefly, the full-length gene of each OR and Orco were subcloned into the eukaryotic expression vector pT7TS. cRNAs were generated from linearized expression vectors using the mMESSAGE mMACHINE T7 kit (Ambion, Austin, TX). Then, the cRNA mixture of ORx and Orco (27.6 ng each) was injected (Nanoliter 2010, WPI Inc., Sarasota, FL) into oocytes (stage V–VII). The respective Orcos of different species were used for functional studies of OR42 orthologs except for the four butterfly species (V. tameamea, P. xuthus, D. plexippus, and P. rapae), in which we used the Orco from P. xuthus. After incubation in nutrient solution at 18 °C for 3–5 days, the response profile of each oocyte to multiple plant odorants was recorded via a two-electrode voltage clamp (OC-725C oocyte clamp, Warner Instruments, Hamden, CT) at a holding potential of −80 mV. Data were acquired by using a Digidata 1440 A and were analyzed by pCLAMP 10.2 software (Axon Instruments Inc., Union City, CA).
Stock solutions of each odorant were prepared at 1 M using DMSO as a solvent, and each odorant was diluted in 1× Ringer’s solution to the indicated concentrations for electrophysiological recording. For functional screening of each HarmOR, a panel of 67 odorants belonging to three types of chemical classes: terpenes, aromatics, and aliphatics (short-chain fatty acid) were used (supplementary table S1, Supplementary Material online). For functional studies of OR42 orthologs from different species, six odorants including PAA, benzaldehyde, (E)-2-hexen-1-al, cinnamaldehyde, 2-phenylethanol, and heptanal were used.

Chain of HarmOR42 (A0A7T3KAF6 entry or part of it): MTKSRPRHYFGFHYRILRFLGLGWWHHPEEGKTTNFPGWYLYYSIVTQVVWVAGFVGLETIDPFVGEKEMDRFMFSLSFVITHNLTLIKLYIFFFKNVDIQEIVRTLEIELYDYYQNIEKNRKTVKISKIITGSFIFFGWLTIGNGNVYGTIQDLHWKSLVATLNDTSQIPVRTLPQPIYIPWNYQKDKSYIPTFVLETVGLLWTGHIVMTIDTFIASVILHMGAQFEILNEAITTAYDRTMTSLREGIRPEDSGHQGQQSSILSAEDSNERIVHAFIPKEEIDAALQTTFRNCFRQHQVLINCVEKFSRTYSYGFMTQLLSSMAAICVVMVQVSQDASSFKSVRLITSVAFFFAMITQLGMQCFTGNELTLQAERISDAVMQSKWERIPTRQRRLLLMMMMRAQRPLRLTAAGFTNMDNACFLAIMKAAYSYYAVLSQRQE

In the case of O=CCc1ccccc1 [Phenylacetaldehyde], the “attractiveness to wild-type moths vs solvent” value (H. armigera moths) is given as “more attractive to H. armigera moths than the solvent control, but the results were not statistically significant”, the “response of EsemOR19” value (EsemOR19) is given as “no response” and the “response of SlitOR14” value (SlitOR14) is given as “high specificity and sensitivity”. For the same compound, the EC50 (HarmOR42) was 48 µM, the “ligand tuning of HarmOR42” value (HarmOR42; 67 odorants at 10^−4 M, listed as PAA) was “largest response; also recorded: high specificity and sensitivity” and the current response (HarmOR42; HarmOR42, odorant 10^−4 M, strongest response detected) was ~6,000 nA.
